# Test results reported in patent publication EP2269600A1, “Treatment of sleep disorders using eplivanserin in COPD patients” (Sanofi-Aventis, priority 2009, dated 2011).
# What was measured:
# [1] = system: patients with chronic (primary) insomnia characterized by sleep maintenance difficulties; assay: Phase 3 study EFC6220: polysomnography (PSG) recordings, 6 weeks, placebo-controlled; assay type: in vivo
# Description: (§1) The Phase 3 program of development of eplivanserin in the treatment of patients with chronic (primary) insomnia characterized by sleep maintenance difficulties consisted of 3 randomized, double-blind (DB), placebo-controlled, efficacy and safety studies designed to assess the efficacy of eplivanserin on sleep maintenance either using polysomnography (PSG) recordings (6-week study EFC6220) or patient-reported outcome (12-week studies LTE6217 and LTE6262) collected daily on sleep questionnaires. They were all double-blind (DB), randomized, placebo-controlled studies. In all studies, treatment period was preceded by a one week, placebo run-in period, designed to check selection criteria for insomnia based on patient reported sleep parameters collected on the daily sleep questionnaires (Studies LTE6217, and LTE6262) or based on PSG recordings during two screening nights in a sleep laboratory (Study EFC6220). Treatment period was followed by a placebo run-out period of 2 weeks designed to assess the effect of abrupt treatment discontinuation. Study EFC6220 was designed to measure the pharmacodynamic activity of eplivanserin on sleep maintenance using PSG recordings in a sleep laboratory. Polysomnograms were recorded in standard conditions during 8 hours in bed. Studies LTE6217 and LTE6262 measured the efficacy of eplivanserin in real life conditions of use at home by collecting daily sleep parameters reported by patients through an Interactive Voice Response System (IVRS).
# [2] = system: patients with chronic (primary) insomnia characterized by sleep maintenance difficulties; assay: Phase 3 studies LTE6217 and LTE6262: patient-reported sleep parameters, 12 weeks, placebo-controlled; assay type: in vivo
# Description: as §1
# [3] = system: patients with mild to moderate COPD; assay: COPD phase I study: overnight pulse oximetry (oxygen saturation); assay type: in vivo
# Method: (§2) The primary objective of this phase I study was to evaluate the pharmacodynamic (PD) effects of eplivanserin 15 mg single dose versus placebo (P) on respiratory function measured by mean overnight oxygen saturation (SaO2) in patients with mild to moderate COPD. Recorded PD parameters were: • Pulse oximetry continuously recorded overnight, with 02 saturation in %, • Pulmonary function tests (PFTs): spirometry [measuring forced vital capacity (FVC), forced expiratory volume (FEV), peak […] flow rate (PEFR), forced […] flow (FEF)] and plethysmography [evaluating airways resistance and conductance], • Capillary blood gases, • PSG with apnea /hypopnea episodes, sleep global sleep parameters and sleep architecture, • Leeds Sleep Evaluation Questionnaire (LSEQ) and Bond & Lader VAS. Safety and pharmacokinetic parameters were also assessed.
# (§3) The study was a single-centre, double-blind, randomized, 2-way crossover, placebo-controlled crossover study with 14 day washout: 15 mg single-dose of eplivanserin (E) vs. placebo (P). Included patients were displaying mild to moderate chronic obstructive pulmonary disease (COPD). The primary end-point was the pulmonary function (02 saturation over the entire night). 28 evaluable patients have been evaluated (COPD severity (FEV1) 50% mild / 50% moderate; Gender: 46.4% M, 53.6% F)
# [4] = system: patients with mild to moderate COPD; assay: COPD phase I study: spirometry; assay type: in vivo; conditions: Eplivanserin 15 mg single dose minus Placebo
# Method: as §2, §3
# [5] = system: patients with mild to moderate COPD; assay: COPD phase I study: plethysmography; assay type: in vivo
# Method: as §2, §3
# [6] = system: patients with mild to moderate COPD; assay: COPD phase I study: capillary blood gases; assay type: in vivo; conditions: 15 mg single dose
# Method: as §2, §3
# [7] = system: patients with mild to moderate COPD; assay: COPD phase I study: PSG (apnea/hypopnea episodes, sleep parameters); assay type: in vivo; conditions: 15 mg single dose
# Method: as §2, §3
# [8] = system: patients with mild to moderate COPD; assay: COPD phase I study: Leeds Sleep Evaluation Questionnaire and Bond & Lader VAS; assay type: in vivo; conditions: 15 mg single dose
# Method: as §2, §3
# [9] = system: patients with mild to moderate COPD; assay: COPD phase I study: safety and tolerability; assay type: in vivo; conditions: for safety / tolerability: 15 mg single dose, mild or moderate COPD
# Method: as §2, §3
# [10] = cited from earlier work
# [11] = 5 mg/day, after 6 and 12 weeks of treatment
compound,measurement,setting,value
"CN(C)CCO/N=C(/C=C/c1ccc(O)cc1)c1ccccc1F [Eplivanserin, (1Z, 2E)-1-(2-fluorophenyl)-3-(4-hydroxyphenyl)-prop-2-en-1-one-O-(2-dimethylaminoethyl)oxime]",Stage 1,[1]; 5 mg/day compared with placebo,decrease of Stage 1
same,percentage of time spent in sleep Stages 3&4 (SWS or deep sleep),[1]; 5 mg/day compared with placebo,increased
same,PSG-WASO,"[1]; Week 3 and Week 6, difference with placebo not statistically significant at Week 6",decreasing PSG-WASO at Week 3 and Week 6
same,number of brief awakenings (<1 min),[1]; compared to placebo,decreased
same,sleep onset (PSG-LPS and pr-SOL),[1]; eplivanserin 5 mg,did not affect sleep onset
same,PSG-NAW (LS mean),"[1]; eplivanserin 5 mg, Week 3, p<0.0001",-1.74
same,pr-NAW,"[1]; eplivanserin 5 mg, Week 3 and Week 6",decrease of pr-NAW
same,PSG-NAW (LS mean),"[1]; eplivanserin 5 mg, Week 6, p<0.0001",-1.82
same,QoS,[1]; in vivo,improved
same,REM sleep,[1]; in vivo,not affected
same,SWS/WASO + Stage 1 index,[1]; in vivo,increase
same,"effect on sleep maintenance (pr-WASO), onset and persistence",[2]; 5 mg/day,observed from Day 1 and persisted up to 1 year of treatment
same,mean pr-NAW,[2]; [11],reducing
same,pr-TST,[2]; [11],increasing
same,pr-WASO,[2]; [11],consistently and significantly decreasing
same,Quality of Sleep and Refreshing Quality of Sleep,[2]; after 6 and 12 weeks of treatment,improved
same,"""sleepiness in the morning"" and ""ability to concentrate""","[2]; compared with placebo, reported by insomniac patients",significantly favorable effect
same,sleep onset,"[2]; human, in vivo",did not affect sleep onset
same,potential for residual effects (next-day impairment),[2]; safety analyses,devoid of next-day impairment
same,"SaO2 (%) during Time in bed, treatment difference LS mean","[3]; Eplivanserin 15 mg single dose minus Placebo, P-value 0.2499",-0.30%
same,Mean oxygen saturation over the entire night (mean ± SD),"[3]; eplivanserin 15 mg single dose, finger pulse oximetry",93.4 % ± 1.66
same,"SaO2 (%) during the sleep stages (stage 1, 2, SWS, REM, wake)",[3]; single dose 15 mg vs placebo,no effect
same,"Forced vital capacity, treatment difference LS mean",[4]; P-value 0.1411,-0.12 L
same,"Forced expiratory volume, treatment difference LS mean",[4]; P-value 0.5289,-0.03 L
same,"Peak expiratory flow, treatment difference LS mean",[4]; P-value 0.6683,-0.05 L/S
same,"airways resistance and conductance in each patient's subgroup (mild, moderate)",[5]; 15 mg single dose vs placebo,no difference
same,"Airways resistance, treatment difference LS mean","[5]; Eplivanserin 15 mg single dose minus Placebo, P-value 0.4880",0.02 KPa * s/l
same,"Airways conductance, treatment difference LS mean","[5]; Eplivanserin 15 mg single dose minus Placebo, P-value 0.6642",-0.01 1/KPa * s
same,"Capillary blood gases (pH, oxygen partial pressure)",[6],minimally or unaffected
same,AHI (apnea hypopnea index),[7],reduction
same,LPS (latency to persistent sleep),[7],no change
same,TST (total sleep time),[7],increase
same,WASO (waketime duration after sleep onset),[7],reduction
same,number of awakenings after sleep onset,[7],reduction
same,LSEQ and Bond & Lader VAS post-treatment scores vs baseline,[8],minimally or unaffected
same,safety / tolerability,[9],well tolerated
same,safety / tolerability,[9]; listed as eplivanserin,no safety concern
same,"impairment of respiratory function (SaO2%, spirometry, body plethysmography)","[9]; oral single dose 15 mg, in comparison with placebo",no impairment of respiratory function was observed
same,half-life time,[10]; average value,50 h
same,absorbed,"[10]; human, in vivo",> 70%
